Assay results taken from patent US11420940B2, “4-carboxamido-isoindolinone derivatives as selective parp-1 inhibitors” (NERVIANO MEDICAL SCIENCES S.r.l, priority 2012, dated 2022).

Columns and labels:
[1] = Pharmacokinetics and oral bioavailability in the mouse; type: in vivo; conditions: 10 mg/kg, oral vs IV dose-normalized AUC
[2] = test system: Capan-1 human pancreatic cancer tumors; test: In vivo efficacy as single agent, Capan-1 BRCA-2 mutated mouse model; conditions: 75 mg/kg oral, daily (schedule 1-8 or 1-10)
Text: Balb, athymic Nu/Nu male mice, from Harlan (Italy), were maintained in agreement with the European Communities Council Directive no. 86/609/EEC concerning the protection of animals used for experimental or other scientific purposes, in cages with paper filter cover, food and bedding sterilized and acidified water. Fragments of Capan-1 human pancreatic cancer tumors were implanted subcutaneously. […] Each group included seven animals. The treatment started one day after randomization. Compound of formula (I) was administered by oral route as a methocel suspension at the indicated doses and times. Tumor dimension was measured regularly by calipers during the experiments and tumor mass was calculated as described in Simeoni M. et al., Cancer Res 64, 1094-1101 (2004).

[3] = test system: BRCA-mutated breast, ovarian and prostate cancer; conditions: 19 patients with BRCA mutations and breast; cited from earlier work

| Compound | F on AUC [1] [%] | Max TGI (%) [2] [%] | objective response rate [3] [%] |
| --- | --- | --- | --- |
| NC(=O)c1cccc2c1C(=O)N(CCN1CCc3ccccc3C1)C2 [(3), 2-[2-(3,4-dihydro-1H-isoquinolin-2-yl)-ethyl]-3-oxo-2,3-dihydro-1H-isoindole-4-carboxylic acid amide] | 30 | – | – |
| NC(=O)c1cccc2c1C(=O)N(C1CCN(C3CCCCC3)CC1)C2 [(11), 2-(1-cyclohexyl-piperidin-4-yl)-3-oxo-2,3-dihydro-1H-isoindole-4-carboxylic acid amide] | 100 | 42 | – |
| NC(=O)c1cccc2c1C(=O)N(C1CCN(Cc3ccoc3)CC1)C2 [(14), 2-(1-furan-3-ylmethyl-piperidin-4-yl)-3-oxo-2,3-dihydro-1H-isoindole-4-carboxylic acid amide] | 57 | – | – |
| NC(=O)c1cccc2c1C(=O)N(C1CCN(Cc3ccccn3)CC1)C2 [(15), 3-oxo-2-(1-pyridin-2-ylmethyl-piperidin-4-yl)-2,3-dihydro-1H-isoindole-4-carboxylic acid amide] | 68 | 54 | – |
| NC(=O)c1cccc2c1C(=O)N(C1CCN(Cc3ccc[nH]3)CC1)C2 [(16), 3-oxo-2-[1-(1H-pyrrol-2-ylmethyl)-piperidin-4-yl]-2,3-dihydro-1H-isoindole-4-carboxylic acid amide] | 37 | – | – |
| O=C(c1cc(Cc2n[nH]c(=O)c3ccccc23)ccc1F)N1CCN(C(=O)C2CC2)CC1 [Olaparib] | – | – | 47 |
